| melting point | SMILES |
| --- | --- |
| 43 °C | CCON=Cc1ccc(O)c(OCC)c1 [Test compound 4, 3-ethoxy-4-hydroxybenzaldehyde O-ethyloxime] |
| 142.4 °C | COc1ccc(C=NO)cc1O [Test compound 6, 3-hydroxy-4-methoxybenzaldoxime] |
| 189 °C (dec.) | CCOc1cc(C=NO)ccc1O [Test compound 9, 3-ethoxy-4-hydroxybenzaldoxime] |
| 118.2 °C | COc1cc(C=NO)ccc1O [Test compound 10, 4-hydroxy-3-methoxybenzaldoxime] |

More lines, now with the values behind:

| SMILES | melting point |
| --- | --- |
| CCON=Cc1ccc(O)c(OC)c1 [Test compound 7, 4-hydroxy-3-methoxybenzaldehyde O-ethyloxime] | 31.7 °C |
| ON=Cc1ccc(O)c(O)c1 [Test compound 5, 3,4-dihydroxybenzaldoxime] | 143 °C (dec.) |
| ON=Cc1cc(O)c(O)c(O)c1 [Test compound 2, 3,4,5-trihydroxybenzaldoxime] | 177 °C (dec.) |
| CCON=Cc1ccc(O)c(O)c1 [Test compound 11, 3,4-dihydroxybenzaldehyde O-ethyloxime] | 23 °C |
| Cc1ccc(CON=Cc2ccc(O)c(O)c2)cc1 [Test compound 8, 3,4-dihydroxybenzaldehyde O-(4-methylbenzyl)-oxime] | 85 to 86 °C |
| CCON=Cc1ccc(OC)c(O)c1 [Test compound 3, 3-hydroxy-4-methoxybenzaldehyde O-ethyloxime] | 61.4 °C |

From US6395260B1, “Topical cosmetic compositions comprising benzaldoximes” (Haarmann & Reimer GmbH, priority 1999, dated 2002)
